Assays:
[1] = Brain-blood distribution of Compound A in the mouse; type: in vivo; conditions: brain / whole blood, single po dose 30 mg/kg, n = 5, read-out: Brain/Blood Ratio (Mean ± SD)
Method: Blood-brain distribution of Compound A was assessed in the mouse, rat, and squirrel monkey by determining the concentrations of Compound A in blood and brain tissue at specific times post dose. Rats and mice received a single po dose of 30 mg/kg. The monkeys received a twice-daily 10 mg/kg po dose of Compound A for a total of 5 weeks prior to sacrifice. Brain to blood ratios for Compound A, as shown below in Table 4, show high penetration of the blood-brain barrier.

[2] = test system: fluid percussion brain injury; experiment: Lateral fluid percussion injury (FPI) model of traumatic brain injury; type: in vivo; conditions: rats
Method: Compound A was tested for efficacy in an animal model of traumatic brain injury. Specifically, Compound A was evaluated in the lateral fluid percussion injury (FPI) model developed by McIntosh (McIntosh T. K., et. al (1989), Neuroscience 28:233-244). This model replicates many of the pathological aspects found in humans who have sustained traumatic brain injury. Furthermore, the damage caused by the injury is sensitive to pharmacological intervention, and thus provides a robust method for preclinical efficacy testing. In this model, animals are subjected to a fluid percussion brain injury, and are then given Compound A shortly thereafter. At specific time points, animals are evaluated using outcome measures that assess cognitive and locomoter deficits that are consequences of the injury. In addition, following behavioral analysis, animals are sacrificed and their brains assessed with respect to a variety of histopathological parameters.
For these studies, experimental parameters are used that were previously developed by Dr. Tracy McIntosh, Director of the University of Pennsylvania Head Injury Center. In these studies, male rats (350-400 g) are used for injuries. All animals are injured at a moderate/severe injury level (2.5-3.0 atm) via a craniotomy positioned over the left parietal cortex centered between Bregma and Lambda. […] Following behavioral testing, these animals are sacrificed, and their brains are analyzed for tissue damage (cortical volume loss, and neuronal cell counts), and other histopathological readouts.
The ability of Compound A to restore cognitive deficits in spatial memory and learning is evaluated at 48 hrs post injury using the Morris watermaze paradigm (Smith D. H. et al. (1991), J. Neurotrauma 8(4): 259-269; Schmidt, R. H. et al. (1999), J. Neurotrauma 16(12): 1139-1147). […] In the learning paradigm, the animals are trained to find the platform, and the reduction in latency with increasing number of training sessions is recorded. […]

For CC(=O)Nc1ccc(C(=O)NC(C)(C)C)cc1 [Compound A, N-tert-butyl-4-acetamidobenzamide], the Kp at 0.5 h ([1]; 0.5 h post-dose) was 0.79 ± 0.05, the Kp at 1 h ([1]; 1.0 h post-dose) was 0.8 ± 0.05 and the Kp at 2 h ([1]; 2.0 h post-dose) was 0.76 ± 0.06. For the same molecule, the “effects on the other locomotor tests, beam balance and rotating pole (in words)” value ([2]; Study Number 1, 20 mg/kg/BID i.p. 7 days, 75% PEG 200) was “limited”, the “effects on the composite neuroscore (in words)” value ([2]; Study Number 1, 20 mg/kg/BID i.p. 7 days, 75% PEG 200, acute and long term) was “robust acute and long term effects” and the “effects in acute or long term locomotor or cognitive tests (in words)” value ([2]; Study Number 2, 10 and 20 mg/kg/BID i.p. 5 days, 50% PEG 400 and 25% ethanol) was “No effects of the compound were observed”.
